# In ChEMBL document CHEMBL1150587, “Evaluation of the potential cancer chemotherapeutic efficacy of natural product isolates employing in vivo hollow fiber tests” (J Nat Prod, 2002):
# Activity calls are given as the source filed them. The rule behind the calls is not given here.
# Legend:
# Lu1 [1] = experiment: Growth inhibition of human Lu1 cells implanted intraperitoneally to NCr nu/nu mouse at15.5 to 124 umol/kg, ip administered from day 3 to 6 after implantation measured on day 7 by MTT-based hollow-fiber test; format: functional
# Lu1 [2] = experiment: Cytotoxicity against human Lu1 cells after 72 hrs by SRB assay; format: functional, cell-based; settings: Lu1, 72 h
# Lu1 [3] = experiment: Growth inhibition of human Lu1 cells implanted subcutaneously to NCr nu/nu mouse at15.5 to 124 umol/kg, ip administered from day 3 to 6 after implantation measured on day 7 by MTT-based hollow-fiber test; format: functional
# SW626 [4] = experiment: Cytotoxicity against human SW626 cells after 72 hrs by SRB assay; format: functional, cell-based; settings: SW626, 72 h
# [5] = Cytotoxicity against human BC1 cells after 72 hrs by SRB assay; settings: BC1, 72 h
# MCF7 [6] = experiment: Cytotoxicity against human MCF7 cells after 72 hrs by SRB assay; settings: MCF7, 72 h
# SK-MEL-2 [7] = experiment: Cytotoxicity against human SK-MEL-2 cells after 72 hrs by SRB assay; format: functional, cell-based; settings: SK-MEL-2, 72 h
# LNCaP [8] = experiment: Cytotoxicity against human LNCAP cells after 72 hrs by SRB assay; format: functional, cell-based
# [9] = Cytotoxicity against human KBV1 cells after 72 hrs by SRB assay; format: functional, cell-based; settings: KB-V1, 72 h
# Mus musculus [10] = experiment: Toxicity in NCr nu/nu mouse subcutaneously implanted with human Lu1 cells assessed as body weight change at 15.5 to 124 umol/kg, ip administered from day 3 to 6 after implantation measured on day 7; format: organism-based; settings: in vivo
# Mus musculus [11] = experiment: Toxicity in human Lu1 cells implanted NCr nu/nu mouse at 516 umol/kg, ip administered from day 3 to 6 after implantation measured on day 7 by hollow-fiber test; format: organism-based; settings: in vivo
# Mus musculus [12] = experiment: Toxicity in human Lu1 cells implanted NCr nu/nu mouse assessed as body weight loss at 252 umol/kg, ip administered from day 3 to 6 after implantation measured on day 7 by hollow-fiber test; format: organism-based; settings: in vivo
# P388 [13] = experiment: Cytotoxicity against mouse P388 cells after 72 hrs by SRB assay; format: functional, cell-based; settings: P388, 72 h
# Col2 = experiment: Cytotoxicity against human Col2 cells after 72 hrs by SRB assay; format: functional, cell-based; settings: Col2, 72 h
# KB [14] = experiment: Cytotoxicity against human KB cells after 72 hrs by SRB assay; format: functional, cell-based
# SW626 [15] = experiment: Growth inhibition of human SW626 cells implanted intraperitoneally to NCr nu/nu mouse at 72.6 to 290.7 umol/kg, ip administered from day 3 to 6 after implantation measured on day 7 by MTT-based hollow-fiber test; format: functional
# KB [16] = experiment: Growth inhibition of human KB cells implanted intraperitoneally to NCr nu/nu mouse at 72.6 to 290.7 umol/kg, ip administered from day 3 to 6 after implantation measured on day 7 by MTT-based hollow-fiber test; format: functional
# KB [17] = experiment: Growth inhibition of human KB cells implanted subcutaneously to NCr nu/nu mouse at 72.6 to 290.7 umol/kg, ip administered from day 3 to 6 after implantation measured on day 7 by MTT-based hollow-fiber test; format: functional
# LNCaP [18] = experiment: Growth inhibition of human LNCAP cells implanted subcutaneously to NCr nu/nu mouse at 72.6 to 290.7 umol/kg, ip administered from day 3 to 6 after implantation measured on day 7 by MTT-based hollow-fiber test; format: functional
# KB [19] = experiment: Growth inhibition of human KB cells implanted subcutaneously to NCr nu/nu mouse assessed as tumor size at 72.6 to 290.7 umol/kg, ip administered on day 10, 13, 16, 20 of implantation; format: functional, organism-based
# Mus musculus [20] = experiment: Toxicity in tumor cell implanted NCr nu/nu mouse assessed as body weight change at 290.7 umol/kg, ip administered from day 3 to 6 after implantation measured on day 7; format: organism-based; settings: in vivo
# Mus musculus [21] = experiment: Toxicity in tumor cell implanted NCr nu/nu mouse assessed as body weight change at 145.3 umol/kg, ip administered from day 3 to 6 after implantation measured on day 7; format: organism-based; settings: in vivo
# SK-MEL-2 [22] = experiment: Growth inhibition of ip dosed subcutaneously implanted human SK-MEL-2 cells to NCr nu/nu mouse administered from day 3 to 6 after implantation measured on day 7 by MTT-based hollow-fiber test; format: functional, organism-based
# Mus musculus [23] = experiment: Toxicity in NCr nu/nu mouse subcutaneously implanted with human KB cells assessed as mortality at 145.3 umol/kg, ip administered on day 10, 13, 16, 20 of implantation; format: organism-based; settings: in vivo
# SW626 [24] = experiment: Growth inhibition of human SW626 cells implanted subcutaneously to NCr nu/nu mouse at 72.6 to 290.7 umol/kg, ip administered from day 3 to 6 after implantation measured on day 7 by MTT-based hollow-fiber test; format: functional
# Mus musculus [25] = experiment: Toxicity in NCr nu/nu mouse subcutaneously implanted with human KB cells assessed as mortality at 72.6 umol/kg, ip administered on day 10, 13, 16, 20 of implantation; format: organism-based; settings: in vivo
# Mus musculus [26] = experiment: Toxicity in tumor cell implanted NCr nu/nu mouse assessed as body weight change at 72.6 umol/kg, ip administered from day 3 to 6 after implantation measured on day 7; format: organism-based; settings: in vivo
# Mus musculus [27] = experiment: Toxicity in NCr nu/nu mouse subcutaneously implanted with human KB cells assessed as change in body weight at 145.3 umol/kg, ip administered on day 10, 13, 16, 20 of implantation; format: organism-based; settings: in vivo
# Mus musculus [28] = experiment: Toxicity in NCr nu/nu mouse subcutaneously implanted with human KB cells assessed as change in body weight at 290.7 umol/kg, ip administered on day 10, 13, 16, 20 of implantation; format: organism-based; settings: in vivo
# Mus musculus [29] = experiment: Toxicity in NCr nu/nu mouse subcutaneously implanted with human KB cells assessed as change in body weight at 72.6 umol/kg, ip administered on day 10, 13, 16, 20 of implantation; format: organism-based; settings: in vivo
# KB [30] = experiment: Growth inhibition of ip dosed subcutaneously implanted human KB cells to NCr nu/nu mouse administered from day 3 to 6 after implantation measured on day 7 by MTT-based hollow-fiber test; format: functional, organism-based
# KB [31] = experiment: Growth inhibition of ip dosed intraperitoneally implanted human KB cells to NCr nu/nu mouse administered from day 3 to 6 after implantation measured on day 7 by MTT-based hollow-fiber test; format: functional, organism-based
# P388 [32] = experiment: Growth inhibition of mouse P388 cells implanted subcutaneously to NCr nu/nu mouse at 72.6 to 290.7 umol/kg, ip administered from day 3 to 6 after implantation measured on day 7 by MTT-based hollow-fiber test; format: functional
# SK-MEL-2 [33] = experiment: Growth inhibition of human SK-MEL-2 cells implanted subcutaneously to NCr nu/nu mouse at 72.6 to 290.7 umol/kg, ip administered from day 3 to 6 after implantation measured on day 7 by MTT-based hollow-fiber test; format: functional
# LNCaP [34] = experiment: Growth inhibition of human LNCAP cells implanted intraperitoneally to NCr nu/nu mouse at 72.6 to 290.7 umol/kg, ip administered from day 3 to 6 after implantation measured on day 7 by MTT-based hollow-fiber test; format: functional
# MCF7 [35] = experiment: Growth inhibition of human MCF7 cells implanted subcutaneously to NCr nu/nu mouse at 72.6 to 290.7 umol/kg, ip administered from day 3 to 6 after implantation measured on day 7 by MTT-based hollow-fiber test; format: functional
# SK-MEL-2 [36] = experiment: Growth inhibition of ip dosed intraperitoneally implanted human SK-MEL-2 cells to NCr nu/nu mouse administered from day 3 to 6 after implantation measured on day 7 by MTT-based hollow-fiber test; format: functional, organism-based
# MCF7 [37] = experiment: Growth inhibition of human MCF7 cells implanted intraperitoneally to NCr nu/nu mouse at 72.6 to 290.7 umol/kg, ip administered from day 3 to 6 after implantation measured on day 7 by MTT-based hollow-fiber test; format: functional
# P388 [38] = experiment: Growth inhibition of mouse P388 cells implanted intraperitoneally to NCr nu/nu mouse at 72.6 to 290.7 umol/kg, ip administered from day 3 to 6 after implantation measured on day 7 by MTT-based hollow-fiber test; format: functional
# Mus musculus [39] = experiment: Toxicity in NCr nu/nu mouse subcutaneously implanted with human KB cells assessed as mortality at 290.7 umol/kg, ip administered on day 10, 13, 16, 20 of implantation; format: organism-based; settings: in vivo
# SK-MEL-2 [40] = experiment: Growth inhibition of human SK-MEL-2 cells implanted intraperitoneally to NCr nu/nu mouse at 72.6 to 290.7 umol/kg, ip administered from day 3 to 6 after implantation measured on day 7 by MTT-based hollow-fiber test; format: functional
# Lu1 [41] = experiment: Growth inhibition of human Lu1 cells implanted intraperitoneally to NCr nu/nu mouse at 72.6 to 290.7 umol/kg, ip administered from day 3 to 6 after implantation measured on day 7 by MTT-based hollow-fiber test; format: functional
# Lu1 [42] = experiment: Growth inhibition of human Lu1 cells implanted subcutaneously to NCr nu/nu mouse at 72.6 to 290.7 umol/kg, ip administered from day 3 to 6 after implantation measured on day 7 by MTT-based hollow-fiber test; format: functional
# KB [43] = experiment: Growth inhibition of human KB cells implanted intraperitoneally to NCr nu/nu mouse at 553.1 umol/kg, ip administered from day 3 to 6 after implantation measured on day 7 by MTT-based hollow-fiber test; format: functional
# Mus musculus [44] = experiment: Toxicity in NCr nu/nu mouse subcutaneously implanted with human KB cells assessed as body weight change at 553.1 umol/kg, ip administered from day 3 to 6 after implantation measured on day 7; format: organism-based; settings: in vivo
# KB [45] = experiment: Growth inhibition of human KB cells implanted subcutaneously to NCr nu/nu mouse at 553.1 umol/kg, ip administered from day 3 to 6 after implantation measured on day 7 by MTT-based hollow-fiber test; format: functional
# [46] = Inhibition of protein farnesyltransferase
# P388 [47] = experiment: Cytotoxicity against mouse P388 cells; format: functional, cell-based
structure (smiles),measurement,setting,value
CC(O)c1cc2c(o1)C(=O)c1ccccc1C2=O (stereo not drawn),inhibition (INH),Lu1 [1],0%
same,IC50,Lu1 [2],0.8 µM
same,inhibition (INH),Lu1 [3],0%
same,IC50,SW626 [4],1.2 µM
same,IC50,[5],13.2 µM
same,IC50,MCF7 [6],2.5 µM
same,IC50,SK-MEL-2 [7],1.2 µM
same,IC50,LNCaP [8],14.5 µM
same,IC50,[9],4.9 µM
same,Activity,Mus musculus [10],-0.4 g
same,Activity,Mus musculus [11],Toxic
same,Activity,Mus musculus [12],Toxic
same,IC50,P388 [13],0.4 µM
same,IC50,Col2,7.4 µM
same,IC50,KB [14],2.1 µM
C=C1C(=O)[C@@]23CC[C@@H]4[C@@]5(C)CCC[C@@]4(OC5=O)[C@@]2(C)CC[C@]1(OC)C3,inhibition (INH),SW626 [15],0%
same,inhibition (INH),KB [16],21.6%
same,IC50,Lu1 [2],2 µM
same,IC50,SW626 [4],0.6 µM
same,inhibition (INH),KB [17],5.7%
same,inhibition (INH),LNCaP [18],0%
same,IC50,[5],3.5 µM
same,Activity,KB [19],Active
same,Activity,Mus musculus [20],0.85 g
same,Activity,Mus musculus [21],0.03 g
same,IC50,MCF7 [6],0.9 µM
same,Activity,SK-MEL-2 [22],Dose-dependent effect
same,IC50,SK-MEL-2 [7],1.2 µM
same,Activity,Mus musculus [23],Non-toxic
same,inhibition (INH),SW626 [24],16.3%
same,Activity,Mus musculus [25],Non-toxic
same,Activity,Mus musculus [26],0.74 g
same,IC50,LNCaP [8],1.2 µM
same,Activity,Mus musculus [27],7.6%
same,IC50,[9],5.2 µM
same,Activity,Mus musculus [28],6.6%
same,Activity,Mus musculus [29],7.9%
same,Activity,KB [30],Dose-dependent effect
same,IC50,P388 [13],0.3 µM
same,Activity,KB [31],Dose-dependent effect
same,inhibition (INH),P388 [32],0%
same,inhibition (INH),SK-MEL-2 [33],11.1%
same,inhibition (INH),LNCaP [34],50.6%
same,inhibition (INH),MCF7 [35],0%
same,Activity,SK-MEL-2 [36],Dose-dependent effect
same,inhibition (INH),MCF7 [37],34.4%
same,inhibition (INH),P388 [38],0%
same,Activity,Mus musculus [39],Non-toxic
same,IC50,Col2,3.8 µM
same,inhibition (INH),SK-MEL-2 [40],15.5%
same,inhibition (INH),Lu1 [41],0%
same,inhibition (INH),Lu1 [42],0%
same,IC50,KB [14],6.4 µM
C=C1C(=O)O[C@@H]2C[C@]3(C)CC[C@]4(C)[C@H](CC[C@@H]5[C@@]6(C)CCC(=O)C(C)(C)[C@@H]6CC[C@]54C)[C@H]3[C@H]12 [OCHRACEOLIDE A],IC50,Lu1 [2],24.3 µM
same,IC50,SW626 [4],35.4 µM
same,IC50,[5],32.3 µM
same,inhibition in vivo at 553.1 µmol/kg,KB [43],0%
same,IC50,MCF7 [6],16.6 µM
same,IC50,SK-MEL-2 [7],14.8 µM
same,Activity,Mus musculus [44],0.5 g
same,IC50,LNCaP [8],13.1 µM
same,IC50,[9],> 44.2 µM
same,IC50,P388 [13],3.5 µM
same,inhibition in vivo at 553.1 µmol/kg,KB [45],0%
same,IC50,[46],2.2 µM
same,IC50,P388 [47],0.58 µM
same,IC50,Col2,19.2 µM
same,IC50,KB [14],20.4 µM
